Test: Metabolic stability in minipig intestinal fluid, quantification of released licofelone by HPLC/UV
Format: in vitro ADME, Gottingen SPF minipig
Settings: incubation in diluted minipig intestinal fluid
Procedure: a) Preparation and Storage of Minipig Intestinal Fluid (IF)
Intestinal tissue/fluid and enterocyte samples were taken from a 10 month old, female Gottingen SPF minipig. The body weight was 21 kg. The minipig was fasted for approximately 28 hours before sampling of intestinal fluid/tissues and enterocytes. On the day of sampling, the minipig was weighed and anaesthetised. The animal was killed by exsanguination before sampling of intestinal fluid. An intestinal segment was ligated at both ends before removal. The isolated tissue was placed in isotonic saline and opened by a longitudinal cut for sampling of intestinal fluid.
The intestinal tissue from each segment was transferred into a Centrifuge Tube, immersed in 10 ml 50 mM phosphate buffer, pH 6.8 and frozen at −70° C.
b) Incubation Experiments with Minipig Intestinal Fluid (without FaSSIF) […]
c) Quantification of Licofelone by HPLC/UV
A set of six reference solutions (solvent: 1 vol IF and 4 vol 2% bovine serum albumin in FaSSIF pH 6.5) with licofelone concentrations between 38.0 and 0.19 μg/ml and the solvent without licofelone were analyzed in duplicate. The obtained concentration/peak area data pairs were subjected to linear regression analysis and the resulting calibration curve (r^2=0.9999) was used for quantification of licofelone in incubation experiments.

SMILES: COC(=O)/C=C/C(=O)OCCOCCOCCOCCOC(=O)Cc1c(-c2ccc(Cl)cc2)c(-c2ccccc2)c2n1CC(C)(C)C2 [Example 8, (E)-But-2-enedioic acid 2-{2-[2-(2-{2-[2-(4-chloro-phenyl)-6,6-dimethyl-1-phenyl-6,7-dihydro-5H-pyrrolizin-3-yl]-acetoxy}-ethoxy)-ethoxy]-ethoxy}-ethyl ester methyl ester]
- Cleavage of the ester bond, release of licofelone and monomethylfumarate: unexpected smooth cleavage of the ester bond

Source: US20180305292A1, “DERIVATIVES OF NONSTEROIDAL ANTI-INFLAMMATORY DRUGS” (priority 2015, published 2018)
